The source of these data is patent US9175007B2, “IRAK inhibitors and uses thereof” (Nimbus Iris, Inc., priority 2013, dated 2015).

SMILES strings stand for the structures. Structures can show the parent of a compound that is named as a salt.

One experiment has as its target T1, IRAK4 (Homo sapiens, UniProt Q9NWZ3).
T1 construct: purchased CARNA Bioscience 09-145
T1 sequence (Q9NWZ3 1-460): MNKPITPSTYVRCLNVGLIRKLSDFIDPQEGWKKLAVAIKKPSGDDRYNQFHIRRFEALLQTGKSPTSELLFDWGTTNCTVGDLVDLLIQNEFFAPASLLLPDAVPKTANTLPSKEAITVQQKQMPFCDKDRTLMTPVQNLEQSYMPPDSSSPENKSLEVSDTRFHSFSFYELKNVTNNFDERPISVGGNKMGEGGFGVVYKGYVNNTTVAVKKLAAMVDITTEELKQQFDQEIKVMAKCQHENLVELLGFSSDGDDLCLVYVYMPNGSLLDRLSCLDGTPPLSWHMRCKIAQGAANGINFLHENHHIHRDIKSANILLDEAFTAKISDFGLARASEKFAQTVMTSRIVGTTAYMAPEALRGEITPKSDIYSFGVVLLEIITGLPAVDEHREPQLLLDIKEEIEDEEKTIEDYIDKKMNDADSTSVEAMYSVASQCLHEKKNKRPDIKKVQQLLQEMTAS
Briefly: IRAK-4 activity inhibition assay (Caliper). The class given is biochemical. The settings on record: 3.5 nM IRAK4, 37 μM ATP, 1.5 μM Peptide 8. The protocol:
A 1× kinase base buffer was prepared from 50 mM HEPES, pH 7.5 and 0.0015% Brij-35. A stop buffer was prepared from 100 mM HEPES, pH 7.5, 0.015% Brij-35, 0.2% Coating Reagent #3, and 50 mM EDTA.
Test compound was diluted to 50× of the final desired highest inhibitor concentration in reaction by 100% DMSO. 100 ul of this compound dilution was transferred to a well in a 96-well plate.
Test compound was serially diluted by transferring 30 μl to 60 μl of 100% DMSO in the next well and so forth for a total of 10 concentrations. 100 μl of 100% DMSO was added to two empty wells for no compound control and no enzyme control in the same 96-well plate.
A new 96-well plate was marked as intermediate plate. 5 μl of compound serial dilution was transferred from source plate to the corresponding wells of the intermediate plate. 45 μl of 1× kinase base buffer (KB buffer) was added to each well of the intermediate plate. The intermediate plate was placed for 10 min on a shaker.
5 μl of each well was transferred from the 96-well intermediate plate to a 384-well plate in duplicates. For example, A1 of the 96-well plate is transferred to A1 and A2 of the 384-well plate. A2 of the 96-well plate is transferred to A3 and A4 of the 384-well plate, and so on.
IRAK4 and DTT in 1× kinase base buffer was added. The 2.5× enzyme mix contained 8.8 nM IRAK4 and 5 mM DTT.
Peptide 8, ATP, MgCl2 and MnCl2 were added in the 1× kinase base buffer. The 2.5× peptide mix contained 3.75 μM peptide 8, 92.5 μM ATP, 12.5 mM MgCl2 and 2.5 mM MnCl2.
Assay plate already contained 5 μl of compound in 10% DMSO. Added 10 μl of 2.5× enzyme solution to each well of the 384-well assay plate, except no enzyme control wells. The final concentration of IRAK4 in reaction was 3.5 nM. Added 10 μl of 1× kinase base buffer to no enzyme control wells in the assay plate. Incubated at room temperature for 10 min.
Added 10 μl of 2.5× peptide solution to each well of the 384-well assay plate. The final concentration of Peptide 8 and ATP was 1.5 μM and 37 μM, respectively. Incubated at 28° C. for 40 minutes. Added 25 μl of stop buffer to stop reaction. Collected data on Caliper.
Copied conversion % data from Caliper program. Converted conversion % values to percent inhibition values. Percent inhibition=(max-conversion %)/(max-min)*100, where “max” means the conversion % of DMSO control and “min” means the conversion % of no enzyme control.

Experiment [1] has as its system TNFα production in THP-1 cells. Briefly: LPS induced TNFα production assay in THP-1 cells. The class given is cell-based. To be noted: Homo sapiens, 300 ng/mL LPS. Here is the method:
(§1) Provided compounds were also assayed in an LPS (Lipopolysacharide) or R848 (TLR-7 agonist) induced cytokine (TNFα and IL8) production assay in THP-1 cells, human peripheral blood mononuclear cells (hPBMC), and whole blood. The exemplary protocol for this assay in THP-1 cells was as follows below.
(§2) THP-1 cells from ATCC (TIB-202) were cultured in RPMI Medium 1640 (Invitrogen, Cat No. A10491-01), 10% fetal bovine serum (Invitrogen, Cat No. 10099141, Lot No. 8172882) containing 100 U/mL Penicillin, 100 μg/mL streptomycin (Invitrogen, Cat No. 15140-122), and 50 uM 2-Mercaptoethanol (Invitrogen, Cat No. 21985023). LPS-EK ultra pure (Invivogen, Cat No. tlrl-peklps) was used to induce IL8 and TNFα production, that was detected in the cell culture supernatant by IL8 HTRF kit (Cisbio, Cat No. 62IL8PEB) and TNFα HTRF kit (Cisbio, Cat No. 62TNFPEB), as per manufacturer instructions. Cells were cultured in 96 well assay plates at 100,000 cells per well, and compounds diluted in final 0.3% DMSO were pre-incubated with cells for 1 hour prior to stimulation with 300 ng/mL LPS. Cytokine production in cell supernatant was measured at 5 hours for TNFα and IL8 production, and for 16 hours for IL8 production and assessment of cell viability.

Experiment [2] deals with IL8 production in THP-1 cells. Briefly: LPS induced IL8 production assay in THP-1 cells. The format is cell-based. To be noted: Homo sapiens, 300 ng/mL LPS. Here is the method: as §1, §2
The subject of experiment [3] is TNF-α production in whole blood. Briefly: In vitro R848-induced TNF-α production in whole blood. The class given is cell-based. The settings on record: Homo sapiens, R848 1 uM.

What is called IC50 is the point on the concentration scale where inhibition reaches its midpoint. Low values mean higher potency, high ones lower potency. On to `Cn1cc(Nc2nc(O[C@H]3CC[C@H](N(C)C)CC3)c3c4c(sc3n2)CCC4)cn1` [Compound I-14, 12-[[4-(dimethylamino)cyclohexyl]oxy]-N-(1-methyl-1H-pyrazol-4-yl)-7-thia-9,11-diazatricyclo[6.4.0.0[2,6]]dodeca-1(8),2(6),9,11-tetraen-10-amine], for which the IC50 is no more than 5000 nM against IRAK4, no more than 500 nM in experiment [1] and no more than 500 nM in experiment [2].
As to `CN1CCN(c2ccc(Nc3nc(O[C@H]4CC[C@H](N(C)C)CC4)c4c5c(sc4n3)CCC5CC(N)=O)cc2)CC1` (stereo partly drawn) [Compound I-19, 2-(4-(((1r,4r)-4-(dimethylamino)cyclohexyl)oxy)-2-((4-(4-methylpiperazin-1-yl)phenyl)amino)-6,7-dihydro-5H-cyclopenta[4,5]thieno[2,3-d]pyrimidin-5-yl)acetamide], the IC50 was no more than 5000 nM at IRAK4 and no less than 5000 nM in experiment [2].
For `Cn1cc(Nc2nc(O[C@H]3CC[C@H](N(C)C)CC3)c3c4c(sc3n2)CC[C@@H]4CC(N)=O)cn1` [Compound I-22, 2-[(3R)-12-[[4-(dimethylamino)cyclohexyl]oxy]-10-[(1-methyl-1H-pyrazol-4-yl)amino]-7-thia-9,11-diazatricyclo[6.4.0.0[2,6]]dodeca-1(8),2(6),9,11-tetraen-3-yl]acetamide], the IC50 at IRAK4 was no more than 5000 nM; in experiment [3], no less than 1000 nM.
In the case of `CN1CCN(c2ccc(Nc3nc(O[C@H]4CC[C@H](N(C)C)CC4)c4c5c(sc4n3)CC[C@@H]5CC(N)=O)cc2)CC1` [Compound I-23], the results for the IC50 (on IRAK4; in experiment [1]; in experiment [2]) were no more than 5000 nM, 1000 to 5000 nM and no less than 5000 nM, respectively.
On the same counts, the results for `CN(C)[C@H]1CC[C@H](Oc2nc(Nc3ccccc3)nc3sc4c(c23)[C@@H](CC(N)=O)CC4)CC1` [Compound I-24, 2-[(3R)-10-(phenylamino)-12-[[(1r,4r)-4-(dimethylamino)cyclohexyl]oxy]-7-thia-9,11-diazatricyclo[6.4.0.0[2,6]]dodeca-1(8),2(6),9,11-tetraen-3-yl]acetamide] are no more than 5000 nM, no more than 500 nM and no more than 500 nM.
As for `Cn1cc(Nc2nc(O[C@H]3CC[C@H](N4CCOCC4)CC3)c3c4c(sc3n2)CC[C@@H]4CC(N)=O)cn1` [Compound I-25], the IC50 against IRAK4 is no more than 5000 nM; in experiment [3], no less than 1000 nM.
`CN1CCN(c2ccc(Nc3nc(N[C@H]4CC[C@H](N(C)C)CC4)c4c5c(sc4n3)CCC5)cc2)CC1` [Compound I-69, 12-N-[4-(dimethylamino)cyclohexyl]-10-N-[4-(4-methylpiperazin-1-yl)phenyl]-7-thia-9,11-diazatricyclo[6.4.0.0[2,6]]dodeca-1(8),2(6),9,11-tetraene-10,12-diamine] came in with an IC50 at IRAK4 of no more than 5000 nM.
The same measure, in the same setting: as for `c1cc(C2CCNCC2)ccc1Nc1nc(N[C@H]2CC[C@H](N3CCOCC3)CC2)c2c3c(sc2n1)CCC3` [Compound I-70, 12-N-[4-(morpholin-4-yl)cyclohexyl]-10-N-[4-(piperidin-4-yl)phenyl]-7-thia-9,11-diazatricyclo[6.4.0.0[2,6]]dodeca-1(8),2(6),9,11-tetraene-10,12-diamine hydrochloride], the figure is no more than 5000 nM.
On the same count and under the same terms, with `CN(C)[C@H]1CC[C@H](Nc2nc(Nc3ccc(C4CCNCC4)cc3)nc3sc4c(c23)CCC4)CC1` [Compound I-71, 12-N-[4-(dimethylamino)cyclohexyl]-10-N-[4-(piperidin-4-yl)phenyl]-7-thia-9,11-diazatricyclo[6.4.0.0[2,6]]dodeca-1(8),2(6),9,11-tetraene-10,12-diamine hydrochloride] the figure was no more than 5000 nM.
On to `Cn1cc(Nc2nc(N[C@H]3CC[C@H](N(C)C)CC3)c3c4c(sc3n2)CCC4)cn1` [Compound I-72, 12-N-[4-(dimethylamino)cyclohexyl]-10-N-(1-methyl-1H-pyrazol-4-yl)-7-thia-9,11-diazatricyclo[6.4.0.0[2,6]]dodeca-1(8),2(6),9,11-tetraene-10,12-diamine], for which the IC50 on IRAK4 is no more than 5000 nM; in experiment [1], no more than 500 nM; in experiment [2], no more than 500 nM.
As for `Cn1cc(Nc2nc(O[C@H]3CC[C@H](N4CCOCC4)CC3)c3c4c(sc3n2)CCC4)cn1` [Compound I-73, N-(1-methyl-1H-pyrazol-4-yl)-12-[[4-(morpholin-4-yl)cyclohexyl]oxy]-7-thia-9,11-diazatricyclo[6.4.0.0[2,6]]dodeca-1(8),2(6),9,11-tetraen-10-amine], the IC50 against IRAK4 was no more than 5000 nM; in experiment [1] it was 500 to 1000 nM; in experiment [2], no more than 500 nM.
The corresponding values for `Cn1cc(Nc2nc(N[C@H]3CC[C@H](N4CCOCC4)CC3)c3c4c(sc3n2)CCC4)cn1` [Compound I-74, 10-N-(1-methyl-1H-pyrazol-4-yl)-12-N-[4-(morpholin-4-yl)cyclohexyl]-7-thia-9,11-diazatricyclo[6.4.0.0[2,6]]dodeca-1(8),2(6),9,11-tetraene-10,12-diamine] are no more than 5000 nM, no more than 500 nM and no more than 500 nM.
For the compound `CN(C)[C@H]1CC[C@H](Nc2nc(Nc3ccccc3)nc3sc4c(c23)CCC4)CC1` [Compound I-75, 12-N-[4-(dimethylamino)cyclohexyl]-10-N-phenyl-7-thia-9,11-diazatricyclo[6.4.0.0[2,6]]dodeca-1(8),2(6),9,11-tetraene-10,12-diamine], the half-maximal inhibitory concentration (IC50) is no more than 5000 nM against IRAK4, 1000 to 5000 nM in experiment [1] and 1000 to 5000 nM in experiment [2].
`c1nscc1Nc1nc(N[C@H]2CC[C@H](N3CCOCC3)CC2)c2c3c(sc2n1)CCC3` [Compound I-76]: the IC50 at IRAK4 is no more than 5000 nM; in experiment [1] it was no more than 500 nM; in experiment [2], no more than 500 nM.
In the case of `c1nocc1Nc1nc(N[C@H]2CC[C@H](N3CCOCC3)CC2)c2c3c(sc2n1)CCC3` [Compound I-77], the IC50 on IRAK4 is no more than 5000 nM; in experiment [1], no more than 500 nM; in experiment [2], no more than 500 nM.
